Data reported in patent US6402037B1, “Two-photon upconverting dyes and applications” (The Research Foundation of State University of New York, priority 1995, dated 2002).
Blank lines part the entries; values can stand above or below the compound they belong to.

Key:
[1] = Two-photon pumped cavity lasing of APSS solution filled hollow fiber (800 nm pump)
Description: As a comparison, the absorption spectrum of 1 mm-path length pure solvent (DMSO) is also provided. There is a strong absorption band around 400 nm due to APSS dye, and the solution is transparent in the 570˜1100 nm spectral range. However, the two-photon energy of ˜800 nm IR radiation falls into the strong absorption band. Therefore, an effective TPA process is expected by ˜800 nm excitation. […] The same effect is expected with increased path length of the solution sample with a given concentration.
The input 800 nm pump IR laser beam was provided by a pulsed dye laser pumped with a Q-switched and frequency-doubled Nd: YAG laser source. The beam size, pulse duration, angular divergence, and repetition rate of the input pump laser radiation were ˜3 mm, ˜5 ns, ˜1 mrad, and 1-10 Hz, respectively. The pump beam was focused by a 4×-microscope objective into the input end of a 15-cm long hollow quartz fiber filled with APSS, prepared as described in Example 16, in DMSO (do=0.012 M). […] Under the excitation of the input 800 nm pump beam, a strong TPA induced green fluorescence emission was seen from the hollow fiber. […]
The spectral intensity distribution of two-photon pumped cavity lasing from the above system is shown in FIG. 16 (dashed curve) at a pump energy level of Eo=290 μJ. For comparison, the one photon (at 400 nm) induced fluorescence spectrum of the same dye solution with the same concentration is also shown in FIG. 16 (solid curve). The bandwidth of cavity lasing was much narrower than the bandwidth of corresponding one-photon induced fluorescence emission without using any intracavity dispersion element. […] Therefore, the blue-side and central range of the fluorescence band would be expected to be more difficult to lase.
The measured single-pulse waveform was recorded by using a fast photodiode detector in conjunction with a 350 MHz oscilloscope (Tektronix 2467 with C1001 video camera). […] At a pump level of ˜150 μJ, the measured one-pass two-photon absorption in the 15 cm-long dye solution filled hollow fiber sample was only about ˜25%. […]

[2] = Energy transfer measurement (fluorescence of ASPS and TPPS in D2O)
Experimental: An experiment based on the fluorescence emission of porphyrin and ASPS was conducted to show energy transfer from the dye to the porphyrin. D2O solutions of the ASPS and TPPS were mixed in different concentrations in a quartz cuvette and placed in the sample compartment of a spectrofluorophotometer. […] The beam energy used in this experiment was approximately 50 mJ in a beam having a 4 mm diameter. […] The porphyrin without the ASPS was also irradiated with the IR laser light to determine any possible contributions from the porphyrin due to two-photon excitation. […] ASPS and TPPS solutions were mixed together and a series of spectra were collected to determine dependence of fluorescence emission spectrum on the concentration of the different molecular species.

[3] = Decomposition temperature (Td) by DSC thermogram; assay type: physicochemical; conditions: DSC under nitrogen
Experimental: Decomposition temperature (“Td”) of each dye was measured by differential scanning calorimetry (“DSC”) thermogram using a Shimadzu DSC-50GPC under nitrogen. Elemental: analysis were performed by Atlantic Microlab, Inc., P.O. Box 2288, Norcross, Ga. 30019. Proton NMR spectra, TV/visible absorption spectra, and UV/visible emission spectra were recorded using a Varian Gemini-300 300 MHz spectrometer, a Shimazdu UV-3101 PC spectrophotometer, and a Shimazdu RF5000U spectrofluorophotometer, respectively: TV/visible absorption spectra of dyes prepared in these Examples in DMF, are provided in FIG. 3.

central wavelength of one-photon fluorescence band ([1]; DMSO 0.012 M, 400 nm excitation): ~520 nm
strong linear absorption band ([1]; DMSO solution, 1 mm path): around 400 nm
transparent spectral range ([1]; DMSO solution, 1 mm path): 570˜1100 nm
Compound: CN(CCO)c1ccc(C=Cc2ccc(S(=O)(=O)CCCCCCO)cc2)cc1 [APSS]

emission peak in mixture with ASPS ([2]; 1060 nm excitation): 653 nm
emission peak ([2]; excited at 610 nm): 650 nm
Compound: O=S(=O)(O)c1ccc(-c2c3nc(c(-c4ccc(S(=O)(=O)O)cc4)c4ccc([nH]4)c(-c4ccc(S(=O)(=O)O)cc4)c4nc(c(-c5ccc(S(=O)(=O)O)cc5)c5ccc2[nH]5)C=C4)C=C3)cc1 [TPPS, meso tetra(p-sulfonaphenyl)porphyrin]

Decomposition temperature (Td) [3]: 241 °C
two-photon induced fluorescence emission peak ([2]; 1060 nm excitation): 610 nm
Compound: trans-4-[p-(-ethyl-N-hydroxyethylamino)styryl]-N-butansulfonpyridinum [dye4]
